Experimental data published in patent US20200354426A1 (MEDIMMUNE LIMITED, priority 2016, published 2020).
Numbered stars: 1 amine (or outer) side, 2 acyl side, 3 side chain; on linkers, the order of the positions; unused ones are H or OH. Side chains are listed from the residue outwards. Peptide text beside a SMILES is read from it. * marks the point of attachment. γGlu = O=C(O)[C@H](CCC(=O)[*:2])N[*:1]; Palmitoyl = CCCCCCCCCCCCCCCC(=O)*

How the values were obtained:
Assay in all cases: cAMP activity assay in assay medium (assay 1)
Format in all cases: cell-based
[1] = target: T1, Human GIPr (Homo sapiens, UniProt P48546); conditions: assay medium; Table 4; read-out: hGIPR EC50
T1 construct: expressed in transfected cells
T1 sequence (P48546 22-466): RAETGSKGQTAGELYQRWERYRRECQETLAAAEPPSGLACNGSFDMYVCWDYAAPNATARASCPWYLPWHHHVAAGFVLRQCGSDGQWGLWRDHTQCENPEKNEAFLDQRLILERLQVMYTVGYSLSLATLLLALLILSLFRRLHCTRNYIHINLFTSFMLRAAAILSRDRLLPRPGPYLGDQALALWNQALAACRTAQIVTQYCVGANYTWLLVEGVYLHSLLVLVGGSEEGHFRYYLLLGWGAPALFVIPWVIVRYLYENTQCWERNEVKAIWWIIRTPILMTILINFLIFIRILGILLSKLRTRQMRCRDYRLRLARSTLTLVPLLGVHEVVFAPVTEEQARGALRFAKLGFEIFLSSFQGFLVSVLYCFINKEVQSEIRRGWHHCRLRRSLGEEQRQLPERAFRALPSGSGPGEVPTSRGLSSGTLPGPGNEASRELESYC
Text: (§1) Biological Activity of Peptides in Cell-Based cAMP Activity Assay (Assay 1):
(§2) All sample dilutions were made in duplicate.

[2] = target: T2, Human GlucR (Homo sapiens, UniProt P47871); conditions: assay medium; Table 4; read-out: hGlucR EC50
T2 construct: expressed in transfected cells
T2 sequence (P47871 26-477): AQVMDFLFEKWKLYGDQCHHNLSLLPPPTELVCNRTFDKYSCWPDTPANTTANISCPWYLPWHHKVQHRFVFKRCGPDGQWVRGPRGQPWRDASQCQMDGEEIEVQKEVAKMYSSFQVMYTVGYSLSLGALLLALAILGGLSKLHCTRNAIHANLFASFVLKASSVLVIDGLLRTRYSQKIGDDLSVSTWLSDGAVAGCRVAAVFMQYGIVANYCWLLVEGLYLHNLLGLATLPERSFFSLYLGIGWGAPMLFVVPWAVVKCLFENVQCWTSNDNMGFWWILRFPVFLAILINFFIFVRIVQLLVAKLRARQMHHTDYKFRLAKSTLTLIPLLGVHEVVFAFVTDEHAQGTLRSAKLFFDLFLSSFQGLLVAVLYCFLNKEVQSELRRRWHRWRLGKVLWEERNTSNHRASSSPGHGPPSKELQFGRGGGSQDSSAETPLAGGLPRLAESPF
Text: as §1, §2

[3] = target: Human GLP1R (Homo sapiens, UniProt P43220); parameters: expressed in transfected cells; conditions: assay medium; Table 4; read-out: hGLP1R EC50
Sequence of Human GLP1R (P43220 24-463): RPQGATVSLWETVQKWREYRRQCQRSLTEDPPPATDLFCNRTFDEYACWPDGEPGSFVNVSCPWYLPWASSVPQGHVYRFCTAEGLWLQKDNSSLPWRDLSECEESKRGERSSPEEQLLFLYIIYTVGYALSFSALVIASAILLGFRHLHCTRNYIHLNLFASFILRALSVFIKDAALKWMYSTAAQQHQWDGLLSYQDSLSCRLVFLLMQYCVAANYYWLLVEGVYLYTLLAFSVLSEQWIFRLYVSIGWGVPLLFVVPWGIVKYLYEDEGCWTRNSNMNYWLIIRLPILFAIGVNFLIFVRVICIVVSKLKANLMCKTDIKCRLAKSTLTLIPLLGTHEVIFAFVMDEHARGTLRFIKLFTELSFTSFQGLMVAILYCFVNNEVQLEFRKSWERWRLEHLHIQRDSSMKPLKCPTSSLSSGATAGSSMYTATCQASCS
Text: as §1, §2

SMILES | EC50 [1] [nM] | EC50 [2] [nM] | EC50 [3] [nM]
CC(C)C[C@H](NC(=O)[C@H](Cc1ccc(O)cc1)NC(=O)[C@H](CCCCN)NC(=O)[C@H](CO)NC(=O)[C@H](Cc1ccc(O)cc1)NC(=O)[C@H](CC(=O)O)NC(=O)[C@H](CO)NC(=O)[C@@H](NC(=O)[C@H](Cc1ccccc1)NC(=O)[C@@H](NC(=O)CNC(=O)[C@H](CCC(N)=O)NC(=O)[C@H](CO)NC(=O)[C@@H](N)Cc1c[nH]cn1)[C@@H](C)O)[C@@H](C)O)C(=O)N[C@@H](CC(=O)O)C(=O)N[C@@H](CO)C(=O)N[C@@H](CCCNC(=N)N)C(=O)N[C@@H](CCCNC(=N)N)C(=O)N[C@@H](C)C(=O)N[C@@H](CCC(N)=O)C(=O)N[C@@H](CC(=O)O)C(=O)N[C@@H](Cc1ccccc1)C(=O)N[C@H](C(=O)N[C@@H](CCC(N)=O)C(=O)N[C@@H](Cc1c[nH]c2ccccc12)C(=O)N[C@@H](CC(C)C)C(=O)N[C@H](C(=O)N[C@@H](CCCNC(=N)N)C(=O)NCC(=O)NCC(=O)N[C@@H](CO)C(=O)N[C@@H](CO)C(=O)NCC(=O)NCC(=O)N[C@@H](CO)C(=O)N[C@@H](CO)C(N)=O)C(C)C)C(C)C [g316] | 3.65 | 0.0106 | 0.0314
CCCCCCCCCCCCCCCC(=O)NCCCC[C@H](NC(=O)[C@H](CO)NC(=O)[C@@H]1CCCN1C(=O)[C@@H]1CCCN1C(=O)[C@@H]1CCCN1C(=O)[C@H](C)NC(=O)CNC(=O)[C@H](CO)NC(=O)[C@H](CO)NC(=O)[C@@H]1CCCN1C(=O)CNC(=O)CNC(=O)[C@H](CCCNC(=N)N)NC(=O)[C@@H](NC(=O)[C@H](CC(C)C)NC(=O)[C@H](Cc1c[nH]c2ccccc12)NC(=O)[C@H](CCC(N)=O)NC(=O)[C@@H](NC(=O)[C@H](Cc1ccccc1)NC(=O)[C@H](CC(=O)O)NC(=O)[C@H](CCC(N)=O)NC(=O)[C@H](C)NC(=O)[C@H](CCCNC(=N)N)NC(=O)[C@H](CCCNC(=N)N)NC(=O)[C@H](CO)NC(=O)[C@H](CC(=O)O)NC(=O)[C@H](CC(C)C)NC(=O)[C@H](Cc1ccc(O)cc1)NC(=O)[C@H](CCCCN)NC(=O)[C@H](CO)NC(=O)[C@H](Cc1ccc(O)cc1)NC(=O)[C@H](CC(=O)O)NC(=O)[C@H](CO)NC(=O)[C@@H](NC(=O)[C@H](Cc1ccccc1)NC(=O)[C@@H](NC(=O)CNC(=O)[C@H](CCC(N)=O)NC(=O)[C@H](CO)NC(=O)[C@@H](N)Cc1c[nH]cn1)[C@@H](C)O)[C@@H](C)O)C(C)C)C(C)C)C(N)=O [g320] (H-HSQGTFTSDYSKYLDSRRAQDFVQWLVRGGPSSGAPPPSK(Palmitoyl)-NH2; N-terminus assumed) | 1.01 | 0.0032 | 0.00938
CCCCCCCCCCCCCCCC(=O)NCCCC[C@H](NC(=O)[C@H](C)NC(=O)[C@@H](NC(=O)[C@H](CC(N)=O)NC(=O)[C@H](CC(N)=O)NC(=O)[C@H](CCCNC(=N)N)NC(=O)[C@H](CC(N)=O)NC(=O)[C@H](CC(N)=O)NC(=O)[C@H](CCCCN)NC(=O)CNC(=O)CNC(=O)[C@H](CCCNC(=N)N)NC(=O)[C@@H](NC(=O)[C@H](CC(C)C)NC(=O)[C@H](Cc1c[nH]c2ccccc12)NC(=O)[C@H](CCC(N)=O)NC(=O)[C@@H](NC(=O)[C@H](Cc1ccccc1)NC(=O)[C@H](CC(=O)O)NC(=O)[C@H](CCC(N)=O)NC(=O)[C@H](C)NC(=O)[C@H](CCCNC(=N)N)NC(=O)[C@H](CCCNC(=N)N)NC(=O)[C@H](CO)NC(=O)[C@H](CC(=O)O)NC(=O)[C@H](CC(C)C)NC(=O)[C@H](Cc1ccc(O)cc1)NC(=O)[C@H](CCCCN)NC(=O)[C@H](CO)NC(=O)[C@H](Cc1ccc(O)cc1)NC(=O)[C@H](CC(=O)O)NC(=O)[C@H](CO)NC(=O)[C@@H](NC(=O)[C@H](Cc1ccccc1)NC(=O)[C@@H](NC(=O)CNC(=O)[C@H](CCC(N)=O)NC(=O)[C@H](CO)NC(=O)[C@@H](N)Cc1c[nH]cn1)[C@@H](C)O)[C@@H](C)O)C(C)C)C(C)C)[C@@H](C)CC)C(N)=O [g322] (H-HSQGTFTSDYSKYLDSRRAQDFVQWLVRGGKNNRNNIAK(Palmitoyl)-NH2; N-terminus assumed) | 1.72 | 0.00355 | 0.0106
CCCCCCCCCCCCCCCC(=O)NCCCC[C@H](NC(=O)CNC(=O)CNC(=O)CNC(=O)CNC(=O)CNC(=O)CNC(=O)[C@H](CCCNC(=N)N)NC(=O)[C@@H](NC(=O)[C@H](CC(C)C)NC(=O)[C@H](Cc1c[nH]c2ccccc12)NC(=O)[C@H](CCC(N)=O)NC(=O)[C@@H](NC(=O)[C@H](Cc1ccccc1)NC(=O)[C@H](CC(=O)O)NC(=O)[C@H](CCC(N)=O)NC(=O)[C@H](C)NC(=O)[C@H](CCCNC(=N)N)NC(=O)[C@H](CCCNC(=N)N)NC(=O)[C@H](CO)NC(=O)[C@H](CC(=O)O)NC(=O)[C@H](CC(C)C)NC(=O)[C@H](Cc1ccc(O)cc1)NC(=O)[C@H](CCCCN)NC(=O)[C@H](CO)NC(=O)[C@H](Cc1ccc(O)cc1)NC(=O)[C@H](CC(=O)O)NC(=O)[C@H](CO)NC(=O)[C@@H](NC(=O)[C@H](Cc1ccccc1)NC(=O)[C@@H](NC(=O)CNC(=O)[C@H](CCC(N)=O)NC(=O)[C@H](CO)NC(=O)[C@@H](N)Cc1c[nH]cn1)[C@@H](C)O)[C@@H](C)O)C(C)C)C(C)C)C(N)=O [g326] | 12.6 | 0.00282 | 0.0247

The next lines start with the values.

EC50 [1] [nM] | EC50 [2] [nM] | EC50 [3] [nM] | SMILES
12.8 | 0.00232 | 0.0193 | CCCCCCCCCCCCCCCC(=O)N[C@@H](CCC(=O)NCCCC[C@H](NC(=O)CNC(=O)CNC(=O)CNC(=O)CNC(=O)CNC(=O)CNC(=O)[C@H](CCCNC(=N)N)NC(=O)[C@@H](NC(=O)[C@H](CC(C)C)NC(=O)[C@H](Cc1c[nH]c2ccccc12)NC(=O)[C@H](CCC(N)=O)NC(=O)[C@@H](NC(=O)[C@H](Cc1ccccc1)NC(=O)[C@H](CC(=O)O)NC(=O)[C@H](CCC(N)=O)NC(=O)[C@H](C)NC(=O)[C@H](CCCNC(=N)N)NC(=O)[C@H](CCCNC(=N)N)NC(=O)[C@H](CO)NC(=O)[C@H](CC(=O)O)NC(=O)[C@H](CC(C)C)NC(=O)[C@H](Cc1ccc(O)cc1)NC(=O)[C@H](CCCCN)NC(=O)[C@H](CO)NC(=O)[C@H](Cc1ccc(O)cc1)NC(=O)[C@H](CC(=O)O)NC(=O)[C@H](CO)NC(=O)[C@@H](NC(=O)[C@H](Cc1ccccc1)NC(=O)[C@@H](NC(=O)CNC(=O)[C@H](CCC(N)=O)NC(=O)[C@H](CO)NC(=O)[C@@H](N)Cc1c[nH]cn1)[C@@H](C)O)[C@@H](C)O)C(C)C)C(C)C)C(N)=O)C(=O)O [g327]
582 | 0.0105 | 0.0733 | CCCCCCCCCCCCCCCC(=O)N[C@@H](CCC(=O)NCCCC[C@H](NC(=O)[C@H](CO)NC(=O)[C@H](CC(=O)O)NC(=O)[C@H](CC(C)C)NC(=O)[C@H](Cc1ccc(O)cc1)NC(=O)[C@H](CCCCN)NC(=O)[C@H](CO)NC(=O)[C@H](Cc1ccc(O)cc1)NC(=O)[C@H](CC(=O)O)NC(=O)[C@H](CO)NC(=O)[C@@H](NC(=O)[C@H](Cc1ccccc1)NC(=O)[C@@H](NC(=O)CNC(=O)[C@H](CCC(N)=O)NC(=O)[C@H](CO)NC(=O)[C@@H](N)Cc1c[nH]cn1)[C@@H](C)O)[C@@H](C)O)C(=O)N[C@@H](CCCNC(=N)N)C(=O)N[C@@H](C)C(=O)N[C@@H](CCC(N)=O)C(=O)N[C@@H](CC(=O)O)C(=O)N[C@@H](Cc1ccccc1)C(=O)N[C@H](C(=O)N[C@@H](CCC(N)=O)C(=O)N[C@@H](Cc1c[nH]c2ccccc12)C(=O)N[C@@H](CC(C)C)C(=O)N[C@H](C(=O)N[C@@H](C)C(=O)NCC(=O)NCC(N)=O)C(C)C)C(C)C)C(=O)O [g335]
19.6 | 0.00177 | 0.0366 | CCCCCCCCCCCCCCCC(=O)N[C@@H](CCC(=O)N[C@@H](CCC(=O)NCCCC[C@H](NC(=O)[C@H](CO)NC(=O)[C@H](CC(=O)O)NC(=O)[C@H](CC(C)C)NC(=O)[C@H](Cc1ccc(O)cc1)NC(=O)[C@H](CCCCN)NC(=O)[C@H](CO)NC(=O)[C@H](Cc1ccc(O)cc1)NC(=O)[C@H](CC(=O)O)NC(=O)[C@H](CO)NC(=O)[C@@H](NC(=O)[C@H](Cc1ccccc1)NC(=O)[C@@H](NC(=O)CNC(=O)[C@H](CCC(N)=O)NC(=O)[C@H](CO)NC(=O)[C@@H](N)Cc1c[nH]cn1)[C@@H](C)O)[C@@H](C)O)C(=O)N[C@@H](CCCNC(=N)N)C(=O)N[C@@H](C)C(=O)N[C@@H](CCC(N)=O)C(=O)N[C@@H](CC(=O)O)C(=O)N[C@@H](Cc1ccccc1)C(=O)N[C@H](C(=O)N[C@@H](CCC(N)=O)C(=O)N[C@@H](Cc1c[nH]c2ccccc12)C(=O)N[C@@H](CC(C)C)C(=O)N[C@H](C(=O)N[C@@H](C)C(=O)NCC(=O)NCC(N)=O)C(C)C)C(C)C)C(=O)O)C(=O)O [g336]
545 | 1.93 | 0.0908 | CCCCCCCCCCCCCCCC(=O)N[C@@H](CCC(=O)NCCCC[C@H](NC(=O)[C@H](CO)NC(=O)[C@H](CC(=O)O)NC(=O)[C@H](CC(C)C)NC(=O)[C@H](Cc1ccc(O)cc1)NC(=O)[C@H](CCCCN)NC(=O)[C@H](CO)NC(=O)[C@H](Cc1ccc(O)cc1)NC(=O)[C@H](CC(=O)O)NC(=O)[C@H](CO)NC(=O)[C@@H](NC(=O)[C@H](Cc1ccccc1)NC(=O)[C@@H](NC(=O)CNC(=O)[C@H](CCC(=O)O)NC(=O)[C@H](CO)NC(=O)[C@@H](N)Cc1c[nH]cn1)[C@@H](C)O)[C@@H](C)O)C(=O)N[C@@H](CCCNC(=N)N)C(=O)N[C@@H](C)C(=O)N[C@@H](CCC(N)=O)C(=O)N[C@@H](CC(=O)O)C(=O)N[C@@H](Cc1ccccc1)C(=O)N[C@H](C(=O)N[C@@H](CCC(N)=O)C(=O)N[C@@H](Cc1c[nH]c2ccccc12)C(=O)N[C@@H](CC(C)C)C(=O)N[C@H](C(=O)N[C@@H](C)C(=O)NCC(=O)NCC(N)=O)C(C)C)C(C)C)C(=O)O [g381] (H-HSEGTFTSDYSKYLDSK([γGlu-Palmitoyl])RAQDFVQWLVAGG-NH2; N-terminus assumed)
